Test results taken from the NIST ThermoML archive (doi:10.1016/j.jct.2016.10.009).

Assay: xn = mol fraction of the nth substance listed
Conditions: Liquid, Vibrating tube method

CC(C)OC(C)C [diisopropyl ether] + CCC(C)O
mass density [kg/m3]
Conditions	x2 = 0	x2 = 0.2036	x2 = 0.3227	x2 = 0.4464	x2 = 0.4973	x2 = 0.6595	x2 = 0.8482
333.15 K, 45000 kPa	–	–	–	761.8	765.4	777.4	793.2
333.15 K, 50000 kPa	739.1	750.4	757.8	765.7	769.2	781.1	796.6
333.15 K, 55000 kPa	743.1	754.3	761.6	769.4	772.9	784.5	799.8
333.15 K, 60000 kPa	747.1	758	765.2	772.9	776.4	787.9	803
333.15 K, 65000 kPa	750.9	761.7	768.8	776.4	779.8	791.2	806
333.15 K, 70000 kPa	754.4	765.1	772.1	779.7	783.1	794.3	808.9
333.15 K, 80000 kPa	761.3	771.8	778.6	785.9	789.2	800.2	814.6
333.15 K, 90000 kPa	767.7	778	784.7	791.9	795.1	805.9	820
333.15 K, 100000 kPa	773.7	783.7	790.3	797.4	800.5	811.1	824.9
333.15 K, 110000 kPa	779.4	789.3	795.8	802.7	805.9	816.1	829.8
333.15 K, 120000 kPa	784.7	794.5	800.9	807.7	810.8	820.9	834.3
333.15 K, 130000 kPa	789.9	799.5	805.9	812.5	815.6	825.6	838.8
333.15 K, 140000 kPa	794.8	804.2	810.4	817	820	830	842.9
353.19 K, 100 kPa	–	672.3	682	692.5	–	712.8	732.9
353.19 K, 1000 kPa	659.5	674.1	683.6	694.1	698.7	714.2	734.2
353.19 K, 5000 kPa	667.6	681.5	690.7	700.7	705.1	720	739.3
353.19 K, 10000 kPa	676.5	689.7	698.5	708	712.3	726.7	745.2
353.19 K, 15000 kPa	684.4	697.1	705.5	714.7	718.9	732.8	750.7
353.19 K, 20000 kPa	691.5	703.8	711.9	720.9	724.9	738.3	755.8
353.19 K, 25000 kPa	698	709.9	717.9	726.6	730.4	743.5	760.6
353.19 K, 30000 kPa	704	715.7	723.4	731.9	735.7	748.5	765.1
353.19 K, 35000 kPa	709.7	721	728.6	736.8	740.6	753.1	769.3
353.19 K, 40000 kPa	714.8	725.9	733.3	741.5	745.1	757.3	773.4
353.19 K, 45000 kPa	719.7	730.8	738	745.9	749.5	761.5	777.3
353.19 K, 50000 kPa	724.6	735.3	742.4	750.3	753.8	765.6	781
353.19 K, 55000 kPa	728.9	739.4	746.5	754.3	757.7	769.4	784.5
353.19 K, 60000 kPa	733.2	743.6	750.5	758.1	761.6	773	788
353.19 K, 65000 kPa	737.2	747.6	754.3	761.9	765.2	776.6	791.3
353.19 K, 70000 kPa	741.1	751.3	758	765.5	768.8	780	794.6
353.19 K, 80000 kPa	748.4	758.3	765	772.2	775.4	786.3	800.5
353.19 K, 90000 kPa	755.4	765.1	771.5	778.6	781.8	792.4	806.4
353.19 K, 100000 kPa	761.6	771.2	777.6	784.5	787.6	798	811.8
353.19 K, 110000 kPa	767.8	777.1	783.4	790.2	793.3	803.5	816.9
353.19 K, 120000 kPa	773.4	782.6	788.8	795.5	798.5	808.6	821.8
353.19 K, 130000 kPa	778.8	787.8	793.9	800.6	803.5	813.4	826.5
353.19 K, 140000 kPa	784	792.9	798.9	805.4	808.4	818.2	831
373.24 K, 1000 kPa	635.6	649.8	659.4	670	674.8	690.8	711.2
373.24 K, 5000 kPa	645.5	659	668	678.1	682.5	697.8	717.4
373.24 K, 10000 kPa	656.1	668.7	677.2	686.9	691.1	705.6	724.3
373.24 K, 15000 kPa	665.3	677.4	685.5	694.7	698.8	712.7	730.7
373.24 K, 20000 kPa	673.5	685.1	693	701.7	705.7	719.1	736.5
373.24 K, 25000 kPa	680.8	692.1	699.7	708.2	712	725.1	741.9
373.24 K, 30000 kPa	687.6	698.6	706	714.3	718	730.6	747.1
373.24 K, 35000 kPa	693.8	704.4	711.7	719.8	723.4	735.7	751.9
373.24 K, 40000 kPa	699.6	710	717.1	725	728.5	740.7	756.3
373.24 K, 45000 kPa	705	715.3	722.2	730	733.5	745.3	760.7
373.24 K, 50000 kPa	710.1	720.1	726.9	734.6	738	749.6	764.7
373.24 K, 55000 kPa	714.9	724.9	731.5	739	742.4	753.8	768.7
373.24 K, 60000 kPa	719.5	729.2	735.8	743.2	746.5	757.8	772.4
373.24 K, 65000 kPa	723.9	733.4	740	747.3	750.6	761.6	776
373.24 K, 70000 kPa	728.1	737.4	743.9	751.1	754.3	765.2	779.5
373.24 K, 80000 kPa	735.9	745.2	751.5	758.4	761.6	772.3	786.1
373.24 K, 90000 kPa	743.2	752.3	758.4	765.2	768.4	778.8	792.3
373.24 K, 100000 kPa	750	758.8	764.9	771.5	774.6	784.8	798.2
373.24 K, 110000 kPa	756.3	765.1	771	777.6	780.6	790.6	803.6
373.24 K, 120000 kPa	762.3	770.9	776.8	783.2	786.1	796	808.8
373.24 K, 130000 kPa	768	776.5	782.3	788.7	791.5	801.3	813.9
373.24 K, 140000 kPa	773.3	781.8	787.4	793.7	796.6	806.1	818.6
393.28 K, 1000 kPa	609.5	623.6	633.2	644	648.8	665	686.4
393.28 K, 5000 kPa	622.1	635	643.9	654	658.4	673.7	693.9
393.28 K, 10000 kPa	635	647	655.3	664.6	668.8	683.2	702.2
393.28 K, 15000 kPa	645.8	657.1	665	673.9	677.9	691.5	709.7
393.28 K, 20000 kPa	655.2	666	673.6	682	685.8	698.9	716.3
393.28 K, 25000 kPa	663.5	674	681.2	689.5	693.1	705.7	722.6
393.28 K, 30000 kPa	671.1	681.1	688.2	696.2	699.8	712	728.4
393.28 K, 35000 kPa	677.9	687.8	694.7	702.5	705.9	717.8	733.8
393.28 K, 40000 kPa	684.3	694	700.7	708.3	711.6	723.2	738.8
393.28 K, 45000 kPa	690.2	699.6	706.2	713.7	717	728.3	743.6
393.28 K, 50000 kPa	695.8	705.1	711.5	718.8	722	733.1	748.1
393.28 K, 55000 kPa	701.1	710.3	716.6	723.7	726.9	737.8	752.5
393.28 K, 60000 kPa	705.9	714.9	721.1	728.2	731.3	742.1	756.5
393.28 K, 65000 kPa	710.6	719.4	725.7	732.5	735.6	746.3	760.4
393.28 K, 70000 kPa	715.2	723.9	729.9	736.8	739.9	750.3	764.3
393.28 K, 80000 kPa	723.5	732	738	744.7	747.6	757.7	771.4
393.28 K, 90000 kPa	731.3	739.7	745.5	752	754.9	764.8	778.1
393.28 K, 100000 kPa	738.4	746.7	752.4	758.7	761.6	771.3	784.3
393.28 K, 110000 kPa	745.3	753.3	758.9	765.2	768	777.5	790.3
393.28 K, 120000 kPa	751.4	759.4	764.9	771.1	773.8	783.2	795.8
393.28 K, 130000 kPa	757.4	765.3	770.8	776.8	779.6	788.8	801.1
393.28 K, 140000 kPa	763.1	770.8	776.3	782.3	784.9	794.1	806.2
